Experimental findings from US9700047B2, “Macrocyclic picolinamides as fungicides” (Dow AgroSciences LLC, priority 2014, dated 2017) are described below.

In assay [1] the test system is Puccinia triticina; Synonym: Puccinia recondita f sp. tritici. Description: Wheat brown rust (PUCCRT) disease control on wheat seedlings. It is filed as in vivo. As to conditions: for pest or weed control at 121.5 g/ha: Low Volume activity at 121.5 g/H; for pest or weed control at 100 ppm: High Volume activity at 100 ppm. On the procedure:
All fungicides were evaluated using the aforementioned method for their activity vs. all target diseases, unless stated otherwise. Wheat leaf blotch and brown rust activity were also evaluated using track spray applications, in which case the fungicides were formulated as EC formulations, containing 0.1% Trycol 5941 in the spray solutions. Wheat plants (variety Yuma) were grown from seed in a greenhouse in 50% mineral soil/50% soil-less Metro mix until the first leaf was fully emerged, with 7-10 seedlings per pot. These plants were inoculated with an aqueous spore suspension of Puccinia triticina either prior to or after fungicide treatments. […] The plants were then transferred to a greenhouse set at 24° C. for disease to develop. Fungicide formulation, application and disease assessment followed the procedures as described in the Example A.

For a further assay, the system named is Rhyncosporium secalis. Nature of the assay: Barley scald (RHYNSE) disease control on barley seedlings. The assay is classed as in vivo. As to conditions: 100 ppm; 1 Day Protectant. On the procedure: All fungicides were evaluated using the aforementioned method for their activity vs. all target diseases, unless stated otherwise. Wheat leaf blotch and brown rust activity were also evaluated using track spray applications, in which case the fungicides were formulated as EC formulations, containing 0.1% Trycol 5941 in the spray solutions. Barley seedlings (variety Harrington) were propagated in soil-less Metro mix, with each pot having 8 to 12 plants, and used in the test when first leaf was fully emerged. Test plants were inoculated by an aqueous spore suspension of Rhyncosporium secalis 24 hr after fungicide treatments. After inoculation the plants were kept in a dew room at 20° C. with 100% relative humidity for 48 hr. The plants were then transferred to a greenhouse set at 20° C. for disease to develop. Fungicide formulation, application and disease assessment on the sprayed leaves followed the procedures as described in the Example A.

[2] abbreviates: 24 h, 1 Day Protectant, read-out: PUCCRT 1DP % Control rating.
Where [3] appears, read: 72 h, 3 Day Curative, read-out: PUCCRT 3DC % Control rating.

Where two headings read alike, the source gives them in different places.

On to `CCCC[C@@H]1[C@@H](Cc2ccc(C(F)(F)F)cc2)CCC[C@H](NC(=O)c2nccc(OC)c2OCOC(C)=O)C(=O)O[C@H]1C` [Compound 3], for which the figures for the pest or weed control at 121.5 g/ha in assay [1] (setting [2]) and in assay [1] (setting [3]) were greater than 70% and less than 70%, respectively. In addition, the “RHYNSE 1DP Disease Control rating” value in the assay on Rhyncosporium secalis was “B (≦70)”.

For the compound `COc1ccnc(C(=O)N[C@H]2CCC[C@H](Cc3ccccc3)[C@@H](C3CCCC3)[C@H](C)OC2=O)c1OC(C)=O` [Compound 9], the pest or weed control at 121.5 g/ha in assay [1] (setting [2]) was greater than 70%; in assay [1] (setting [3]), less than 70%.

On to `COc1ccnc(C(=O)N[C@H]2CCC[C@H](CCC(C)C)[C@@H](CCc3ccccc3)[C@H](C)OC2=O)c1O` [Compound 83], for which the figures for the pest or weed control at 100 ppm in assay [1] (setting [2]) and in assay [1] (setting [3]) were greater than 70% and less than 70%, respectively.

For `COc1ccnc(C(=O)N[C@H]2CCC[C@H](Cc3ccc(Cl)cc3)[C@@H](C3CCCC3)[C@H](C)OC2=O)c1OCOC(C)=O` [Compound 29], the figures for the pest or weed control at 121.5 g/ha in assay [1] (setting [2]) and in assay [1] (setting [3]) were greater than 70% and less than 70%, respectively.

On to `COc1ccnc(C(=O)N[C@H]2CCC[C@H](Cc3ccc(C(F)(F)F)cc3)[C@@H](Cc3ccc(OC(F)(F)F)cc3)[C@H](C)OC2=O)c1OC(C)=O` [Compound 67], for which the pest or weed control at 121.5 g/ha in assay [1] (setting [2]) and in assay [1] (setting [3]) was less than 70% throughout.

Consider `COc1ccnc(C(=O)N[C@H]2CCC[C@H](Cc3ccc(C(F)(F)F)cc3)[C@@H](Cc3ccccc3)[C@H](C)OC2=O)c1OC(C)=O` [Compound 25], for which the pest or weed control at 121.5 g/ha in assay [1] (setting [2]) and in assay [1] (setting [3]) was less than 70% throughout.

Turning to `COc1ccnc(C(=O)N[C@H]2CCC[C@H](Cc3ccccc3)[C@@H](CCc3ccccc3)[C@H](C)OC2=O)c1OCOC(=O)C(C)C` [Compound 17], the pest or weed control at 121.5 g/ha in assay [1] (setting [2]) is greater than 70%; in assay [1] (setting [3]), less than 70%.

On to `CCC[C@H]1CCC[C@H](NC(=O)c2nccc(OC)c2O)C(=O)O[C@@H](C)[C@@H]1c1ccccc1` [Compound 91], for which the pest or weed control at 100 ppm in assay [1] (setting [2]) was greater than 70%; in assay [1] (setting [3]), less than 70%.

Turning to `CCOCC(=O)OCOc1c(OC)ccnc1C(=O)N[C@H]1CCC[C@H](Cc2ccc(Cl)cc2)[C@@H](Cc2ccccc2)[C@H](C)OC1=O` [Compound 20], the pest or weed control at 121.5 g/ha in assay [1] (setting [2]) and in assay [1] (setting [3]) was greater than 70% throughout.

As to `CCOCC(=O)OCOc1c(OC)ccnc1C(=O)N[C@H]1CCC[C@H](Cc2ccccc2)[C@@H](CCC(C)C)[C@H](C)OC1=O` [Compound 51], the pest or weed control at 121.5 g/ha in assay [1] (setting [2]) was greater than 70%; in assay [1] (setting [3]), less than 70%.

In the case of `COc1ccnc(C(=O)N[C@H]2CCC[C@H](Cc3ccc(Cl)cc3)[C@@H](C3CCCC3)[C@H](C)OC2=O)c1OCOC(=O)C(C)C` [Compound 30], the pest or weed control at 121.5 g/ha in assay [1] (setting [2]) and in assay [1] (setting [3]) was less than 70% each time.

On to `COc1ccnc(C(=O)N[C@H]2CCC[C@H](Cc3ccc(C(F)(F)F)cc3)[C@@H](CC(C)C)[C@H](C)OC2=O)c1O` [Compound 80], for which the pest or weed control at 100 ppm is greater than 70% in assay [1] (setting [2]) and less than 70% in assay [1] (setting [3]).

In the case of `CCC[C@H]1CCC[C@H](NC(=O)c2nccc(OC)c2OCOC(C)=O)C(=O)O[C@@H](C)[C@@H]1Cc1ccccc1` [Compound 37], the pest or weed control at 121.5 g/ha in assay [1] (setting [2]) and in assay [1] (setting [3]) was greater than 70% each time.

Take `COc1ccnc(C(=O)N[C@H]2CCC[C@H](Cc3ccc(C(F)(F)F)cc3)[C@@H](Cc3ccc(F)cc3)[C@H](C)OC2=O)c1OCOC(C)=O` [Compound 39]: the pest or weed control at 121.5 g/ha in assay [1] (setting [2]) and in assay [1] (setting [3]) was less than 70% in each case.

In the case of `COc1ccnc(C(=O)N[C@H]2CCC[C@H](Cc3ccccc3)[C@@H](Cc3ccc(F)cc3)[C@H](C)OC2=O)c1OC(C)=O` [Compound 62], the pest or weed control at 121.5 g/ha is greater than 70% in assay [1] (setting [2]) and less than 70% in assay [1] (setting [3]).

`COc1ccnc(C(=O)N[C@H]2CCC[C@H](CCC(C)C)[C@@H](CCc3ccccc3)[C@H](C)OC2=O)c1OCOC(C)=O` [Compound 34]: the pest or weed control at 121.5 g/ha in assay [1] (setting [2]) was greater than 70%; in assay [1] (setting [3]) it was less than 70%.

For `COc1ccnc(C(=O)N[C@H]2CCC[C@H](Cc3ccccc3)[C@@H](c3ccccc3)[C@H](C)OC2=O)c1OC(C)=O` [Compound 53], the pest or weed control at 121.5 g/ha is greater than 70% in assay [1] (setting [2]) and less than 70% in assay [1] (setting [3]).

With `COc1ccnc(C(=O)N[C@H]2CCC[C@H](Cc3ccccc3)[C@@H](c3ccccc3)[C@H](C)OC2=O)c1OCOC(C)=O` [Compound 52], the pest or weed control at 121.5 g/ha in assay [1] (setting [2]) was greater than 70%; in assay [1] (setting [3]), less than 70%.

As for `CCOCC(=O)OCOc1c(OC)ccnc1C(=O)N[C@H]1CCC[C@H](Cc2ccc(C(F)(F)F)cc2)[C@@H](Cc2ccc(OC(F)(F)F)cc2)[C@H](C)OC1=O` [Compound 66], the pest or weed control at 121.5 g/ha in assay [1] (setting [2]) and in assay [1] (setting [3]) was less than 70% throughout.

In the case of `COc1ccnc(C(=O)N[C@H]2CCC[C@H](Cc3ccccc3)[C@@H](Cc3ccc(F)cc3)[C@H](C)OC2=O)c1OCOC(=O)C(C)C` [Compound 64], the pest or weed control at 121.5 g/ha in assay [1] (setting [2]) was greater than 70%; in assay [1] (setting [3]), less than 70%.

`CCOCC(=O)OCOc1c(OC)ccnc1C(=O)N[C@H]1CCC[C@H](Cc2ccccc2)[C@@H](Cc2ccc(OC(F)(F)F)cc2)[C@H](C)OC1=O` [Compound 69]: the pest or weed control at 121.5 g/ha in assay [1] (setting [2]) and in assay [1] (setting [3]) was less than 70% each time.

With `COc1ccnc(C(=O)N[C@H]2CCC[C@H](CCC(C)C)[C@@H](Cc3ccccc3)[C@H](C)OC2=O)c1OC(C)=O` [Compound 4], the pest or weed control at 121.5 g/ha in assay [1] (setting [2]) was greater than 70%; in assay [1] (setting [3]) it was less than 70%.

On to `COc1ccnc(C(=O)N[C@H]2CCC[C@H](CC3CC3)[C@@H](Cc3ccccc3)[C@H](C)OC2=O)c1O` [Compound 94], for which the results for the pest or weed control at 121.5 g/ha in assay [1] (setting [2]) and in assay [1] (setting [3]) were greater than 70% and less than 70%, respectively.
